Measured values taken from ChEMBL document CHEMBL1141916, “Synthesis and anticonvulsant activity of new 2-substituted-5-(2-benzyloxyphenyl)-1,3,4-oxadiazoles” (Bioorg Med Chem Lett, 2005).

Tests used:
[1] = species on record: Mus musculus; experiment: Effective dose against pentylenetetrazole (PTZ) induced anticonvulsant activity in mice; format: functional
[2] = species on record: Mus musculus; experiment: Effective dose against maximal electroshock (MES) induced convulsants in mice; format: functional
[3] = Lethal dose tested against mice; format: toxicity; conditions: mouse, in vivo
[4] = test system: Mus musculus; experiment: Effective dose against pentylenetetrazole (PTZ) induced anticonvulsant activity in presence of flumazenil at 10 mg/kg in mice; range: 1.5-4.1; format: functional
[5] = species on record: Mus musculus; experiment: animal or person
Description: Effective dose against pentylenetetrazole (PTZ) induced anticonvulsant activity in presence of flumazenil at 10 mg/kg in mice; Range: 1.1-2

[6] = species on record: Mus musculus; experiment: animal or person; remark: listed apart in the source

Row | SMILES | ED50 [1] [mg/kg] | ED50 [2] [mg/kg] | LD50 [3] [mg/kg] | ED50 [4] [mg/kg] | ED50 [5] [mg/kg] | ED50 [6] [mg/kg]
1 | Sc1nnc(-c2ccccc2OCc2ccccc2)o1 | > 100 | ≥ 100 | > 300 | – | – | –
2 | CCSc1nnc(-c2ccccc2OCc2ccccc2)o1 | > 100 | > 100 | > 300 | – | – | –
3 | Nc1nnc(-c2ccccc2OCc2ccc(F)cc2)o1 | 2.5 | 3.3 | > 300 | 2.5 | – | –
4 | Nc1nnc(-c2ccccc2OCc2ccccc2)o1 | 85.2 | 63.2 | > 300 | – | – | –
5 | CN1C(=O)CN=C(c2ccccc2)c2cc(Cl)ccc21 [DIAZEPAM] | 1.4 | 1.8 | – | – | 2 | 2.6
6 | c1ccc(COc2ccccc2-c2nnc(SCc3ccccc3)o2)cc1 | > 100 | > 100 | > 300 | – | – | –
7 | CSc1nnc(-c2ccccc2OCc2ccccc2)o1 | 91.2 | > 100 | > 300 | – | – | –
8 | Nc1nnc(-c2ccccc2OCc2ccc(Cl)cc2)o1 | > 100 | > 100 | > 300 | – | – | –
